Drawing on paper PMC5601071 (Frontiers in Pharmacology, 2017), this text covers inhibition for eleven compounds.

Molecules are shown by their SMILES. Residues, ends and D or L forms follow the SMILES beside them. *: point of attachment. Dansyl = CN(C)c1cccc2c(S(=O)(=O)*)cccc12; Fmoc = O=C(OCC1c2ccccc2-c2ccccc21)*; Stearoyl = CCCCCCCCCCCCCCCCCC(=O)*; Palmitoyl = CCCCCCCCCCCCCCCC(=O)*; Myristoyl = CCCCCCCCCCCCCC(=O)*; For = O=C*

The target in one experiment is T1, TREK-1 channel (hTREK-1/HEK cells) (Homo sapiens, UniProt O95069).
T1 construct: expressed in transfected cells
T1 sequence (O95069 1-426): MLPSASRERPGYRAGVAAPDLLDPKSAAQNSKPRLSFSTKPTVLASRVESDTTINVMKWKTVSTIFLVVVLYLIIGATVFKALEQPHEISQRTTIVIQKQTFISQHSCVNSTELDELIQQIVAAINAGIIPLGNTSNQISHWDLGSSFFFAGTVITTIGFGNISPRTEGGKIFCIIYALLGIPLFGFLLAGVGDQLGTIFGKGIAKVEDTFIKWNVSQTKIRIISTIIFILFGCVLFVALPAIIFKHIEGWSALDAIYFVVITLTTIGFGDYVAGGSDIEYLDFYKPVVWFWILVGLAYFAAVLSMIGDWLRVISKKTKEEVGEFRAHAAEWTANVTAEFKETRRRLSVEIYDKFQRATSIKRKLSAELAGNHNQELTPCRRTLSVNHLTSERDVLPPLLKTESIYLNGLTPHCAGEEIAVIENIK
Put plainly: TREK-1 current inhibition, whole-cell patch-clamp on hTREK-1/HEK cell line. It is filed as cell-based. As to conditions: HEK293, peptide 100 nM; TREK-1 first activated with 10 μM arachidonic acid (AA); current density at 0 mV; hTREK-1/HEK cells; mean ± SEM, n = cells; read-out: % of TREK-1 inhibition. As to the method:
The human TREK-1/HEK cell line (Moha ou Maati et al., [2011]) and the native HEK293 cell line were maintained in Dulbecco's Modified Eagle's Medium (DMEM) supplemented with 10% (v/v) heat-inactivated fetal bovine serum, 1% (v/v) penicillin-streptomycin, 1% Glutamax. For the hTREK-1/HEK cells, 0.5 mg/ml G418 were added to the medium.
Cells were incubated in a humidified atmosphere containing 5% CO2. For electrophysiological measurements, cells were plated at a density of 20,000 cells per 35 mm dish.
Cells from the hTREK-1/HEK cell line were seeded at a density of 20,000 cells/35 mm dish. Electrophysiological recordings were performed 24–48 h after plating using the whole-cell configuration of patch-clamp technique. TREK-1 currents (ITREK−1) were recorded using RK400 patch-clamp amplifier (Axon Instrument, USA). They were low-pass filtered at 3 kHz and digitized at 10 kHz using a 12-bit analog-to-digital converter digidata (1322 series, Axon Instrument, USA). ITREK−1amplitudes were expressed as current densities [current amplitude (pA)/membrane capacitance (pF)]. The results were expressed as mean ± SEM (standard error of the mean).
Cells were continuously perfused using an external bath solution containing in mM: 150 NaCl, 5 KCl, 3 MgCl2, 1 CaCl2, and 10 HEPES. The bath solution was initially adjusted to pH 7.4 with NaOH. The intra-pipette solution contained in mM: 155 KCl, 3 MgCl2, 5 EGTA, and 10 HEPES adjusted to pH 7.2 with KOH. In order to measure ITREK−1, a cocktail of potassium channel blockers was added to the bath solution. This cocktail contained: 3 mM 4-AP (4-aminopyridine), 10 mM TEA (tetraethylammonium), 10 μM Glibenclamide, 100 nM Apamin, and 50 nM Charybdotoxin. Data acquisition was carried out using a computer (Dell Pentium) with pClamp software (Axon Instrument, USA). Whole-cell currents were generated by running a pulse or ramp protocol every 5 s from −100 to +60 mV with a holding potential maintained at −80 mV. To evaluate the inhibitory effect on TREK-1 channels of shortened spadin analogs compared with spadin, cells were first activated by 10 μM arachidonic acid (AA). Dose-response curves were realized to compare spadin-analog effects with spadin using Origin 8.6 (Northampton, MA, USA).
Patch-clamp recording data were analyzed using Clampfit (Molecular Devices, USA). I = f(V) curves were obtained from −100 to +60 mV ramp. Data were presented as mean ± SEM.
(In general: In patch-clamp work, channel activity is measured electrically.)
Consider `CCOC(=O)[C@H](CCCNC(=N)N)NC(=O)[C@H](CC(C)C)NC(=O)CNC(=O)[C@H](Cc1c[nH]c2ccccc12)NC(=O)[C@H](CO)NC(=O)[C@@H](NC(=O)CN)C(C)C` [PE 22-28-O-Ethyl] (H-GVSWGLR-OEt), for which the inhibition at 0.1 µM was 41.4 ± 11.5%.
The same measure, in the same setting: to `COC(=O)[C@H](CCCNC(=N)N)NC(=O)[C@H](CC(C)C)NC(=O)CNC(=O)[C@H](Cc1c[nH]c2ccccc12)NC(=O)[C@H](CO)NC(=O)[C@@H](NC(=O)CN)C(C)C` [PE 22-28-O-Methyl] (H-GVSWGLR-OMe) belongs 43 ± 13.5%; to `CC(C)C[C@H](NC(=O)CNC(=O)[C@H](Cc1c[nH]c2ccccc12)NC(=O)[C@H](CO)NC(=O)[C@@H](NC(=O)CN)C(C)C)C(=O)N[C@@H](CCCNC(=N)N)C(=O)O` [PE 22-28] (H-GVSWGLR-OH), 55.5 ± 4.55%.
Still for that read-out and setting: to `CC[C@H](C)[C@H](NC(=O)[C@@H]1CCCN1)C(=O)NCC(=O)N[C@H](C(=O)N[C@@H](CO)C(=O)N[C@@H](Cc1c[nH]c2ccccc12)C(=O)NCC(=O)N[C@@H](CC(C)C)C(=O)N[C@@H](CCCNC(=N)N)C(=O)O)C(C)C` [PI-PE 22-28] (H-PIGVSWGLR-OH) belongs 46.2 ± 7.57%.

Staying with this experiment, now noted: HEK293, read-out: % of TREK-1 inhibition.
As to `CC(=O)NCC(=O)N[C@H](C(=O)N[C@@H](CO)C(=O)N[C@@H](Cc1c[nH]c2ccccc12)C(=O)NCC(=O)N[C@@H](CC(C)C)C(=O)N[C@@H](CCCNC(=N)N)C(=O)O)C(C)C` [Acetyl-PE 22-28] (Ac-GVSWGLR-OH), the inhibition at 0.1 µM was 20.5 ± 8.78%.
On the same count and under the same terms, to `CC(C)C[C@H](NC(=O)CNC(=O)[C@H](Cc1c[nH]c2ccccc12)NC(=O)[C@H](CO)NC(=O)[C@@H](NC(=O)CNS(=O)(=O)c1cccc2c(N(C)C)cccc12)C(C)C)C(=O)N[C@@H](CCCNC(=N)N)C(=O)O` [DansyI-PE 22-28] (Dansyl-GVSWGLR-OH) belongs 48.8 ± 14.5%.
Still for that read-out and setting: the same measure for `CC(C)C[C@H](NC(=O)CNC(=O)[C@H](Cc1c[nH]c2ccccc12)NC(=O)[C@H](CO)NC(=O)[C@@H](NC(=O)CNC(=O)OCC1c2ccccc2-c2ccccc21)C(C)C)C(=O)N[C@@H](CCCNC(=N)N)C(=O)O` [F-Moc-PE 22-28] (Fmoc-GVSWGLR-OH): 5.83 ± 10.9%; for `CC(C)C[C@H](NC(=O)CNC(=O)[C@H](Cc1c[nH]c2ccccc12)NC(=O)[C@H](CO)NC(=O)[C@@H](NC(=O)CNC=O)C(C)C)C(=O)N[C@@H](CCCNC(=N)N)C(=O)O` [Formyl-PE 22-28] (For-GVSWGLR-OH): 32.5 ± 12.2%; for `CCCCCCCCCCCCCC(=O)NCC(=O)N[C@H](C(=O)N[C@@H](CO)C(=O)N[C@@H](Cc1c[nH]c2ccccc12)C(=O)NCC(=O)N[C@@H](CC(C)C)C(=O)N[C@@H](CCCNC(=N)N)C(=O)O)C(C)C` [Myristoyl-PE 22-28] (Myristoyl-GVSWGLR-OH): 18 ± 17.8%.
On the same count and under the same terms, to `CCCCCCCCCCCCCCCC(=O)NCC(=O)N[C@H](C(=O)N[C@@H](CO)C(=O)N[C@@H](Cc1c[nH]c2ccccc12)C(=O)NCC(=O)N[C@@H](CC(C)C)C(=O)N[C@@H](CCCNC(=N)N)C(=O)O)C(C)C` [Palmitoyl-PE 22-28] (Palmitoyl-GVSWGLR-OH) belongs 26.7 ± 16.4%; to `CCCCCCCCCCCCCCCCCC(=O)NCC(=O)N[C@H](C(=O)N[C@@H](CO)C(=O)N[C@@H](Cc1c[nH]c2ccccc12)C(=O)NCC(=O)N[C@@H](CC(C)C)C(=O)N[C@@H](CCCNC(=N)N)C(=O)O)C(C)C` [Stearic acid-PE 22-28] (Stearoyl-GVSWGLR-OH), 5.41 ± 5.5%.

By inhibition is commonly meant the change of the read-out against control, counted positive when it falls.
